From patent US9822147B2, “Methods of treating ophthalmic diseases using NPR-B agonists” (priority 2009, dated 2017)

Experiments:
[1] = tested on: human colon adenocarcinoma cells; settings: 1 mM ANP, within 24 h; cited from earlier work
rabbit eyes = assay: Efficacy in the rabbit: intraocular pressure (IOP) after a single topical ocular drop; assay type: in vivo; settings: dose 300 ug topical ocular, single 30 μL drop, up to 4 hr post dose, 1% as suspension (+) or solution (++) per mark on label
Experimental: A single 30 μL drop of a test item formulation was administered to rabbit eyes (n=8 to 10).
Intraocular pressure (IOP) was assessed in each eye at 0 hr, just prior to dosing, and again hourly for up to 4 hr post dose. The efficacy of a given formulation was determined based on the difference between the pretreatment TOP readings at 0 hr and the post treatment readings. A maximum percent reduction in IOP greater than 15% was noted by the “+” symbol. A maximum IOP reduction of less than 15% was assigned the “−” symbol.

[2] = tested on: small-cell lung cancer cells; settings: 100 μM; cited from earlier work
[3] = tested on: human renal carcinoma cells; settings: 100 μM; cited from earlier work
NPR-B receptor = molecular target: T1, NPR-B receptor (Mus musculus, UniProt Q6VVW5); settings: AtT-20 cells; cited from earlier work
T1 construct: the only natriuretic receptor present on the cell surface was the NPR-B receptor; host or cells: AtT-20 pituitary tumor cells (endogenous receptor)
T1 sequence (Q6VVW5 17-1047): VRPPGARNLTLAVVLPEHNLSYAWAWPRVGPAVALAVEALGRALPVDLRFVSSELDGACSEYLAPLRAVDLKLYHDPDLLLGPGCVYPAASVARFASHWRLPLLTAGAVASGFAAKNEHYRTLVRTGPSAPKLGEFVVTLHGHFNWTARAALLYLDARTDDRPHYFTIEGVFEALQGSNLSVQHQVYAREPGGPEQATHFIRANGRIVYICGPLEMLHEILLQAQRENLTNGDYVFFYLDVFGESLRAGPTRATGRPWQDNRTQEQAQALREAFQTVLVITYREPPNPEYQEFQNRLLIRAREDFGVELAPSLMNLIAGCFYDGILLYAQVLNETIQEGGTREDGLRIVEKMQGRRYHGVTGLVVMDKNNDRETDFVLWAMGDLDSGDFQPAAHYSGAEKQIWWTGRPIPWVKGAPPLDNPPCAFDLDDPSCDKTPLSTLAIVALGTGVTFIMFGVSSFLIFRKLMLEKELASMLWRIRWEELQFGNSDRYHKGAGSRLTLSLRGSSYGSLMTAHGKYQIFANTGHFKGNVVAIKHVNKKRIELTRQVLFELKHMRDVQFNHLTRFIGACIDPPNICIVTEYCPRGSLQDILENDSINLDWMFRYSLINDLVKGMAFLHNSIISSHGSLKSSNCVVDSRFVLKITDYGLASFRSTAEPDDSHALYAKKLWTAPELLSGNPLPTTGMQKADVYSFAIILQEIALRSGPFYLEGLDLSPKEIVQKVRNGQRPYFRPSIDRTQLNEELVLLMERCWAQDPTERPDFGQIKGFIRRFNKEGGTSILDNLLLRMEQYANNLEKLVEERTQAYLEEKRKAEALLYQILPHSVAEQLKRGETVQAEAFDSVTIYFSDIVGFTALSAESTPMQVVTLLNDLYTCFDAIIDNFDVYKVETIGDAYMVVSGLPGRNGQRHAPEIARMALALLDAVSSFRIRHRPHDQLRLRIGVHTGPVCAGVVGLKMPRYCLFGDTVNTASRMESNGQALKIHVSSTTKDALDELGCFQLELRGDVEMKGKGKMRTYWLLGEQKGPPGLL

chondrocytes = settings: CNP 10 to 100 pM, at the highest dose; cited from earlier work

## CC[C@H](C)[C@@H]1NC(=O)[C@H](CCCNC(=N)N)NC(=O)[C@H](CC(=O)O)NC(=O)[C@H](CCSC)NC(=O)[C@H](CCCNC(=N)N)NC(=O)CNC(=O)CNC(=O)[C@H](Cc2ccccc2)NC(=O)[C@@H](NC(=O)[C@H](CO)NC(=O)[C@H](CO)NC(=O)[C@H](CCCNC(=N)N)NC(=O)[C@H](CCCNC(=N)N)NC(=O)[C@H](CC(C)C)NC(=O)[C@@H](N)CO)CSSC[C@@H](C(=O)N[C@@H](CC(N)=O)C(=O)N[C@@H](CO)C(=O)N[C@@H](Cc2ccccc2)C(=O)N[C@@H](CCCNC(=N)N)C(=O)N[C@@H](Cc2ccc(O)cc2)C(=O)O)NC(=O)CNC(=O)[C@H](CC(C)C)NC(=O)CNC(=O)[C@H](CO)NC(=O)[C@H](CCC(N)=O)NC(=O)[C@H](C)NC(=O)CNC1=O [ANP, atrial natriuretic peptide]
[1]
  decrease in cell number: up to 97%

## CC[C@H](C)[C@@H]1NC(=O)[C@H](CCCNC(=N)N)NC(=O)[C@H](CC(=O)O)NC(=O)[C@H](CC(C)C)NC(=O)[C@H](CCCCN)NC(=O)[C@H](CC(C)C)NC(=O)CNC(=O)[C@H](Cc2ccccc2)NC(=O)[C@@H](NC(=O)CNC(=O)[C@H](CCCCN)NC(=O)[C@H](CO)NC(=O)[C@H](CC(C)C)NC(=O)CN)CSSC[C@@H](C(=O)O)NC(=O)CNC(=O)[C@H](CC(C)C)NC(=O)CNC(=O)[C@H](CO)NC(=O)[C@H](CCSC)NC(=O)[C@H](CO)NC(=O)CNC1=O [CNP, C-type natriuretic peptide]
Rabbit eyes
  RIOP, maximum percent reduction in IOP: − (− IOP reduction <15%)
[2]
  decrease in the number of small-cell lung cancer cells: 39%
[3]
  decrease in cell number of human renal carcinoma cells: 10%
NPR-B receptor
  stimulation of cGMP production: up to 200 fold
chondrocytes
  increase in cellularity (chondrocyte proliferation): up to 43%
